Patent publication US8551452B2, “Uridine dietary supplementation compliance methods and use thereof” (Massachusetts Institute of Technology, priority 2007, dated 2013)

Tests used:
[1] = Localized in vivo 1H MRS of parietal white matter and occipital gray matter (1.5T) for cytidine levels; details: brain cytidine-containing metabolites, brain water as internal reference
Procedure: All MRI scans and localized in vivo ^1H MRS procedures are performed on a system equipped with shielded gradients (GE 1.5T Signa; General Electric Medical Systems; Milwaukee, Wis.) from 9 PM to midnight. Spectroscopy is performed following a routine brain MRI analysis, and the T2-weighted images are used for localization of an area of interest. […]
The major metabolites detectable in ^1H MRS are CDP choline, cytidine, cytidine 5′-monophosphate (CMP), cytidine 5′-diphosphate (CDP), cytidine 5′-triphosphate (CTP), deoxycytidine 5′-monophosphate (dCMP), deoxycytidine 5′-diphosphate (dCDP), deoxycytidine 5′-triphosphate (dCTP). […] The areas under the peaks is measured by Lorenzian line-shape fitting. The absolute concentrations of CDP choline, cytidine, cytidine 5′-monophosphate (CMP), cytidine 5′-diphosphate (CDP), cytidine 5′-triphosphate (CTP), deoxycytidine 5′-monophosphate (dCMP), deoxycytidine 5′-diphosphate (dCDP), deoxycytidine 5′-triphosphate (dCTP) is calculated from the processed spectrum using the brain water as an internal reference. All concentrations are expressed as millimoles per weight of uridine taken. The reference brain water signals used is fixed in the PWM and in the OGM, as calculated.

[2] = Localized 13C MRS measurement of in vivo 13C cytidine in brain (9.4 T); details: in vivo 13C brain cytidine content, external reference method
Procedure: All in vivo MRS studies are performed in a horizontal 9.4-T/31-cm magnet (Magnex Scientific, UK) with an 11-cm-diameter gradient coil capable of switching to 300 mT/m in 500 μs, interfaced with an INOVA console (Varian Inc., Calif., USA). A quadrature ^1H radiofrequency (RF) 14-mm-diameter coil and a linear polarized, three-turn 11-mm-diameter ^13C RF coil are used as the transceiver. A sphere containing 99% ^13C-enriched glucose (Glu) is located at the center of the ^13C coil as an external reference, and the coil is placed on the subject's head. Fast Automatic Shimming Technique by Mapping Along Projections (FASTMAP) shimming with echo-planar imaging (EPI) readout is applied to adjust B0 field homogeneity in a initially nominal ˜440 μL volume of interest (VOI). The Single-shot Inversion Recovery based Non-Echo (SIRENE) sequence is applied for 3D localization with optimized outer volume suppression to ensure elimination of signals from noncerebral tissue, and bilevel WALTZ-16 RF pulses are applied at the water frequency for generation of a nuclear Overhauser effect (NOE) and for decoupling during acquisition.
Twelve 64-scan localized ^13C MR spectra (repetition time (TR)=1 s) acquired and are summed, apodized by 20-Hz exponential line-broadening, zero-filled, and Fourier transformed. […] In vivo ^13C brain cytidine content ([^13C-Cyt]invivo) is calculated.

[3] = 1H-MRS of the hippocampus (3T, PRESS), metabolite ratios to administered uridine; assay type: in vivo; details: brain cytidine-containing metabolites (CDP choline, cytidine, CMP, CDP, CTP, dCMP, dCDP, dCTP) as ratio of administered uridine, left and right hippocampus
Procedure: MRI and ^1H-MRS are performed on a 3T scanner. Anatomical MR images are obtained in the coronal plane using a 3D magnetization-prepared rapid gradient echo (MPRAGE) sequence. The sequence is acquired with a field of view of 16 cm, 32 slices with a 3-mm slice thickness, 256×256 matrix size 600-msec inversion time, repetition time (TR) of 8 msec, echo time (TE) of 3 msec, a bandwidth of 32 kHz, and 1 excitation. These images are used to select graphically the left and right hippocampus for solvent suppressed ^1H-MRS. Single-voxel ^1H-MRS of the hippocampus is performed using point-resolved spectroscopy (PRESS). […]
Analysis is performed on the main metabolites detected by MRS, that is, CDP choline, cytidine, cytidine 5′-monophosphate (CMP), cytidine 5′-diphosphate (CDP), cytidine 5′-triphosphate (CTP), deoxycytidine 5′-monophosphate (dCMP) , deoxycytidine 5′-diphosphate (dCDP), deoxycytidine 5′-triphosphate (dCTP), all expressed as a ratio of the administered uridine (Ur). When modeling the overall correlation between the administered uridine or uridine source and metabolite ratios, the measurements of metabolite ratios from the hippocampus on both sides of the brain of each subject analyzed by using repeated measures, with a compound symmetry covariance structure, to account for the within subject correlation.

Measured: increase in metabolite ratio as a function of administered uridine or uridine source

O=c1ccn([C@@H]2O[C@H](CO)[C@@H](O)[C@H]2O)c(=O)[nH]1 [uridine]
direct correlation: all assays above
